# Patent EP4578939A1, “MYC[…]. BASED ON VARIOUS CARBON-NITROGEN METABOLIC […], METHOD FOR ISOLATING SAME, AND USE THEREOF” (Peng, Guanghao, priority 2022, dated 2024)
# Counter-ions that a name gives are not always drawn. Like-named read-outs stand apart in the source and are kept apart here.
# Test system: strain YT
# Experiment: inhibition of nitrification inhibitors on nitrification activity and growth
# Type: cell-based, Mycobacterium sp.
# Settings: for inhibition at 5000 µM: Mycobacterium; for effect on growth of strain YT: pure culture with two nitrogen sources; for effect on nitrification activity of strain YT: pure culture; for inhibition rate on nitrification activity: over the 35 days of culture
# Experimental: The nitrogen contents of the two nitrogen sources were equal in a modified Stephenson medium with (NH4)2SO4 as a nitrogen source (NH4)2SO4 content was 2.0g/L) and a modified Stephenson medium with L-arginine hydrochloride (C6H14N4O2•HCl) as a nitrogen source (C6H14N4O2•HCl content was 1.6 g/L).
# When sodium pyruvate was added as a carbon source in the design of a culture medium, 1.0M sodium pyruvate solution (the concentration was calculated in terms of pyruvic acid) was prepared firstly, the pH was adjusted to the range of 7.0-7.2, and the solution was sterilized separately for later use. Before use, 1ml of 1.0M sodium pyruvate solution was added to about 100ml of modified Stevenson culture medium with (NH4)2SO4 as a nitrogen source or L-arginine hydrochloride (C6H14N4O2•HCl) as a nitrogen source, and the pyruvic acid concentration of the culture system was designed to be 0.01M.
# Four kinds of nitrification inhibitors 4-amino-1,2,4-triazole (ATC), dicyandiamide (DCD, C2H4N4), aminoguanidine hydrochloride (CH6N4•HCl), and guanylthiourea (C2H6N4S) were selected. The four nitrification inhibitors were prepared with a concentration of 500mM, respectively, after the solutions were filtered and sterilized, 1ml of the four nitrification inhibitors with a concentration of 500mM was added into the two medium with different nitrogen sources, such that the corresponding concentration of each of the nitrification inhibitors in the systems was 5 mM.
# Two mediums with different nitrogen sources were respectively subjected to 5 treatments, namely without addition of an inhibitor, adding ATC, adding DCD, adding aminoguanidine hydrochloride, and adding guanylthiourea as shown in the table below; the YT system without addition of an inhibitor and the system without inoculation of strain YT and only addition of an inhibitor were respectively used as a control group; 1ml of PBS-YT bacterial liquid was inoculated, and 1ml of sterile water was used as a substitute when the inoculation of a bacterial strain was not performed. The total volume of each culture system was equal, it was about 100 ml.
# 1.5 Culture conditions: the culture was performed in a shaking table with a rotational speed of 180rpm at 28°C.
# 1.6 Measurement and calculation of indicator: the growth OD600 and pH value of thallus in the culture solution were measured every week, the contents of NH4^+-N, NO2^--N and NOx^--N were measured, the inhibition effect of the nitric oxide synthase (nitrification) activity of different culture systems were calculated and compared.
# Nitric oxide synthase (nitrification) inhibition rate (%) = (NO2^--NYT concentration - NO2^--Nculture system added with an inhibitor concentration) ×100/ NO2^--NYT concentration
# [1] = 504 h, strain YT, Ammonium sulfate, inhibitor 5 mM, Culture 21 days, read-out: Nitric oxide synthase (nitrification) activity inhibition rate (%)
# [2] = 504 h, strain YT, L-arginine hydrochloride, inhibitor 5 mM, Culture 21 days, read-out: Nitric oxide synthase (nitrification) activity inhibition rate (%)
# [3] = 672 h, strain YT, Ammonium sulfate, inhibitor 5 mM, Culture 28 days, read-out: Nitric oxide synthase (nitrification) activity inhibition rate (%)
# [4] = 672 h, strain YT, L-arginine hydrochloride, inhibitor 5 mM, Culture 28 days, read-out: Nitric oxide synthase (nitrification) activity inhibition rate (%)
# [5] = strain YT, Ammonium sulfate, inhibitor 5 mM, Culture 7 days (Table 13d), read-out: Nitric oxide synthase (nitrification) activity inhibition rate (%)
# [6] = strain YT, Ammonium sulfate, inhibitor 5 mM, Culture 14 days (Table 13d), read-out: Nitric oxide synthase (nitrification) activity inhibition rate (%)
# [7] = strain YT, Ammonium sulfate, inhibitor 5 mM, Culture 35 days, read-out: Nitric oxide synthase (nitrification) activity inhibition rate (%)
# [8] = strain YT, L-arginine hydrochloride, inhibitor 5 mM, Culture 14 days (Table 13d), read-out: Nitric oxide synthase (nitrification) activity inhibition rate (%)
# [9] = strain YT, L-arginine hydrochloride, inhibitor 5 mM, Culture 35 days, read-out: Nitric oxide synthase (nitrification) activity inhibition rate (%)
# [10] = strain YT, L-arginine hydrochloride as nitrogen source, inhibitor 5 mM, 7 days
# [11] = strain YT, L-arginine hydrochloride as nitrogen source, inhibitor 5 mM, 14 days
# [12] = strain YT, L-arginine hydrochloride as nitrogen source, inhibitor 5 mM, 21 days
# [13] = strain YT, L-arginine hydrochloride as nitrogen source, inhibitor 5 mM, 28 days
# [14] = strain YT, L-arginine hydrochloride as nitrogen source, inhibitor 5 mM, 35 days
# [15] = strain YT, ammonium sulfate as nitrogen source, inhibitor 5 mM, 7 days
# [16] = strain YT, ammonium sulfate as nitrogen source, inhibitor 5 mM, 14 days
# [17] = strain YT, ammonium sulfate as nitrogen source, inhibitor 5 mM, 21 days
# [18] = strain YT, ammonium sulfate as nitrogen source, inhibitor 5 mM, 28 days
# [19] = strain YT, ammonium sulfate as nitrogen source, inhibitor 5 mM, 35 days
# [20] = 168 h, strain YT, L-arginine hydrochloride, inhibitor 5 mM, Culture 7 days (Table 13e), read-out: Nitric oxide synthase (nitrification) activity inhibition rate (%)
# [21] = 336 h, strain YT, L-arginine hydrochloride, inhibitor 5 mM, Culture 14 days (Table 13e), read-out: Nitric oxide synthase (nitrification) activity inhibition rate (%)
# [22] = 480 h, strain YT, L-arginine hydrochloride, inhibitor 5 mM, Culture 20 days, read-out: Nitric oxide synthase (nitrification) activity inhibition rate (%)
# [23] = strain YT, L-arginine hydrochloride, inhibitor 5 mM, Culture 31 days, read-out: Nitric oxide synthase (nitrification) activity inhibition rate (%)
# [24] = strain YT, L-arginine hydrochloride as nitrogen source, inhibitor 5 mM, 7 days (Table 13c)
# [25] = strain YT, L-arginine hydrochloride as nitrogen source, inhibitor 5 mM, 14 days (Table 13c)
# [26] = strain YT, L-arginine hydrochloride as nitrogen source, inhibitor 5 mM, 20 days
# [27] = strain YT, L-arginine hydrochloride as nitrogen source, inhibitor 5 mM, 31 days
# [28] = strain YT, ammonium sulfate as nitrogen source, inhibitor 5 mM, 7 days (Table 13c)
# [29] = strain YT, ammonium sulfate as nitrogen source, inhibitor 5 mM, 14 days (Table 13c)
# [30] = strain YT, ammonium sulfate as nitrogen source, inhibitor 5 mM, 20 days
# [31] = strain YT, ammonium sulfate as nitrogen source, inhibitor 5 mM, 31 days
smiles,measurement,setting,value
"N=C(N)NN [Aminoguanidine hydrochloride, aminoguanidine hydrochloride]",inhibition at 5000 µM,[1],99.4%
same,inhibition at 5000 µM,[2],99.8%
same,inhibition at 5000 µM,[3],97.2%
same,inhibition at 5000 µM,[4],99.5%
same,inhibition at 5000 µM,[5],99.2%
same,inhibition at 5000 µM,[6],99.7%
same,inhibition at 5000 µM,[7],98%
same,inhibition at 5000 µM,[8],99.8%
same,inhibition at 5000 µM,[9],99.1%
same,effect on growth of strain YT,inhibitor 5 mM,can inhibit the growth
same,effect on nitrification activity of strain YT,inhibitor 5 mM,had an inhibitory effect
same,NH4^+-N,[10],12.86 mg/L
same,NO2^--N,[10],0 mg/L
same,NH4^+-N,[11],38.07 mg/L
same,NO2^--N,[11],0.24 mg/L
same,NH4^+-N,[12],100.12 mg/L
same,NO2^--N,[12],0.28 mg/L
same,NH4^+-N,[13],145.55 mg/L
same,NO2^--N,[13],0.58 mg/L
same,NH4^+-N,[14],58.70 mg/L
same,NO2^--N,[14],1.00 mg/L
same,inhibition rate on nitrification activity,"strain YT, L-arginine hydrochloride as nitrogen source",≥ 99%
same,NH4^+-N,[15],418.92 mg/L
same,NO2^--N,[15],0 mg/L
same,NH4^+-N,[16],419.06 mg/L
same,NO2^--N,[16],0.01 mg/L
same,NH4^+-N,[17],438.98 mg/L
same,NO2^--N,[17],0.03 mg/L
same,NH4^+-N,[18],448.65 mg/L
same,NO2^--N,[18],0.19 mg/L
same,NH4^+-N,[19],468.07 mg/L
same,NO2^--N,[19],0.14 mg/L
same,inhibition rate on nitrification activity,"strain YT, ammonium sulfate as nitrogen source",more than 97%
"N#CN=C(N)N [DCD, dicyandiamide]",inhibition at 5000 µM,"168 h, strain YT, Ammonium sulfate, inhibitor 5 mM, Culture 7 days (Table 13e), read-out: Nitric oxide synthase (nitrification) activity inhibition rate (%)",0%
same,inhibition at 5000 µM,[20],0%
same,inhibition at 5000 µM,"336 h, strain YT, Ammonium sulfate, inhibitor 5 mM, Culture 14 days (Table 13e), read-out: Nitric oxide synthase (nitrification) activity inhibition rate (%)",0%
same,inhibition at 5000 µM,[21],7.14%
same,inhibition at 5000 µM,"480 h, strain YT, Ammonium sulfate, inhibitor 5 mM, Culture 20 days, read-out: Nitric oxide synthase (nitrification) activity inhibition rate (%)",32.4%
same,inhibition at 5000 µM,[22],0.72%
same,inhibition at 5000 µM,"strain YT, Ammonium sulfate, inhibitor 5 mM, Culture 31 days, read-out: Nitric oxide synthase (nitrification) activity inhibition rate (%)",8.62%
same,inhibition at 5000 µM,[23],0%
same,effect on growth of strain YT,inhibitor 5 mM,did not inhibit the growth
same,effect on nitrification activity of strain YT,inhibitor 5 mM,did not impose an inhibitory effect
same,NH4^+-N,[24],18
same,NO2^--N,[24],0.50
same,OD600,[24],0.397
same,NH4^+-N,[25],121
same,NO2^--N,[25],32.5
same,OD600,[25],0.438
same,NH4^+-N,[26],191
same,NO2^--N,[26],152.77
same,OD600,[26],0.415
same,NH4^+-N,[27],173
same,NO2^--N,[27],153.87
same,OD600,[27],0.378
same,NH4^+-N,[28],421
same,NO2^--N,[28],1.00
same,OD600,[28],0.207
same,NH4^+-N,[29],408
same,NO2^--N,[29],2.50
same,OD600,[29],0.121
same,NH4^+-N,[30],355
same,NO2^--N,[30],3.20
same,OD600,[30],0.127
same,NH4^+-N,[31],382
same,NO2^--N,[31],5.11
same,OD600,[31],0.128
"N=C(N)NC(N)=S [Amidinothiourea, guanylthiourea]",inhibition at 5000 µM,[1],59.8%
same,inhibition at 5000 µM,[2],72.7%
same,inhibition at 5000 µM,[3],33.5%
same,inhibition at 5000 µM,[4],77.4%
same,inhibition at 5000 µM,[5],95.6%
same,inhibition at 5000 µM,[6],94.8%
same,inhibition at 5000 µM,[7],11%
same,inhibition at 5000 µM,[8],98.3%
same,inhibition at 5000 µM,[9],72%
same,effect on growth of strain YT,inhibitor 5 mM,can obviously inhibit the growth
same,effect on nitrification activity of strain YT,inhibitor 5 mM,also exhibited inhibitory effect
same,Nitric oxide synthase (nitrification) activity inhibition rate (%),"strain YT, Ammonium sulfate, inhibitor 5 mM, Culture 35 days",11.07%
same,NH4^+-N,[10],8.13 mg/L
same,NO2^--N,[10],0 mg/L
same,NH4^+-N,[11],175.90 mg/L
same,NO2^--N,[11],1.72 mg/L
same,NH4^+-N,[12],154.73 mg/L
same,NO2^--N,[12],31.10 mg/L
same,NH4^+-N,[13],138.43 mg/L
same,NO2^--N,[13],25.70 mg/L
same,NH4^+-N,[14],165.02 mg/L
same,NO2^--N,[14],32.26 mg/L
same,Nitric oxide synthase (nitrification) activity inhibition rate (%),"strain YT, L-arginine hydrochloride, inhibitor 5 mM, Culture 35 days",71.62%
same,NH4^+-N,[15],395.07 mg/L
same,NO2^--N,[15],0.02 mg/L
same,NH4^+-N,[16],418.86 mg/L
same,NO2^--N,[16],0.13 mg/L
same,NH4^+-N,[17],407.33 mg/L
same,NO2^--N,[17],1.64 mg/L
same,NH4^+-N,[18],419.92 mg/L
same,NO2^--N,[18],4.57 mg/L
same,NH4^+-N,[19],422.98 mg/L
same,NO2^--N,[19],6.12 mg/L
same,inhibition rate on nitric oxide synthase (nitrification) activities,"strain YT, two nitrogen sources, before 14 days of culture",≥ 95%
"Nn1cnnc1 [ATC, 4-amino-1,2,4-triazole]",inhibition at 5000 µM,"168 h, read-out: Nitric oxide synthase (nitrification) activity inhibition rate (%), strain YT, Ammonium sulfate, inhibitor 5 mM, Culture 7 days (Table 13e)",100%
same,inhibition at 5000 µM,[20],100%
same,inhibition at 5000 µM,"336 h, read-out: Nitric oxide synthase (nitrification) activity inhibition rate (%), strain YT, Ammonium sulfate, inhibitor 5 mM, Culture 14 days (Table 13e)",80%
same,inhibition at 5000 µM,[21],98.6%
same,inhibition at 5000 µM,"480 h, read-out: Nitric oxide synthase (nitrification) activity inhibition rate (%), strain YT, Ammonium sulfate, inhibitor 5 mM, Culture 20 days",89.4%
same,inhibition at 5000 µM,[22],99.8%
same,inhibition at 5000 µM,"read-out: Nitric oxide synthase (nitrification) activity inhibition rate (%), strain YT, Ammonium sulfate, inhibitor 5 mM, Culture 31 days",25.4%
same,inhibition at 5000 µM,[23],99.8%
same,effect on growth of strain YT,inhibitor 5 mM,did not inhibit the growth
same,effect on nitrification activity of strain YT,inhibitor 5 mM,always exhibited the inhibiting effect
same,NH4^+-N,[24],15
same,NO2^--N,[24],0
same,OD600,[24],0.403
same,NH4^+-N,[25],89
same,NO2^--N,[25],0.5
same,OD600,[25],0.394
same,NH4^+-N,[26],130
same,NO2^--N,[26],0.37
same,OD600,[26],0.329
same,NH4^+-N,[27],111
same,NO2^--N,[27],0.33
same,OD600,[27],0.252
same,NH4^+-N,[28],419
same,NO2^--N,[28],0
same,OD600,[28],0.214
same,NH4^+-N,[29],410
same,NO2^--N,[29],0.50
same,OD600,[29],0.127
same,NH4^+-N,[30],366
same,NO2^--N,[30],0.5
same,OD600,[30],0.133
same,NH4^+-N,[31],382
same,NO2^--N,[31],1.17
same,OD600,[31],0.146
